Holding throughout (conditions): at 10 µM
For test [1], the system named is T1, Receptor-type tyrosine-protein kinase FLT3 (Homo sapiens), P36888 [R834Q].
T1 sequence (whole entry): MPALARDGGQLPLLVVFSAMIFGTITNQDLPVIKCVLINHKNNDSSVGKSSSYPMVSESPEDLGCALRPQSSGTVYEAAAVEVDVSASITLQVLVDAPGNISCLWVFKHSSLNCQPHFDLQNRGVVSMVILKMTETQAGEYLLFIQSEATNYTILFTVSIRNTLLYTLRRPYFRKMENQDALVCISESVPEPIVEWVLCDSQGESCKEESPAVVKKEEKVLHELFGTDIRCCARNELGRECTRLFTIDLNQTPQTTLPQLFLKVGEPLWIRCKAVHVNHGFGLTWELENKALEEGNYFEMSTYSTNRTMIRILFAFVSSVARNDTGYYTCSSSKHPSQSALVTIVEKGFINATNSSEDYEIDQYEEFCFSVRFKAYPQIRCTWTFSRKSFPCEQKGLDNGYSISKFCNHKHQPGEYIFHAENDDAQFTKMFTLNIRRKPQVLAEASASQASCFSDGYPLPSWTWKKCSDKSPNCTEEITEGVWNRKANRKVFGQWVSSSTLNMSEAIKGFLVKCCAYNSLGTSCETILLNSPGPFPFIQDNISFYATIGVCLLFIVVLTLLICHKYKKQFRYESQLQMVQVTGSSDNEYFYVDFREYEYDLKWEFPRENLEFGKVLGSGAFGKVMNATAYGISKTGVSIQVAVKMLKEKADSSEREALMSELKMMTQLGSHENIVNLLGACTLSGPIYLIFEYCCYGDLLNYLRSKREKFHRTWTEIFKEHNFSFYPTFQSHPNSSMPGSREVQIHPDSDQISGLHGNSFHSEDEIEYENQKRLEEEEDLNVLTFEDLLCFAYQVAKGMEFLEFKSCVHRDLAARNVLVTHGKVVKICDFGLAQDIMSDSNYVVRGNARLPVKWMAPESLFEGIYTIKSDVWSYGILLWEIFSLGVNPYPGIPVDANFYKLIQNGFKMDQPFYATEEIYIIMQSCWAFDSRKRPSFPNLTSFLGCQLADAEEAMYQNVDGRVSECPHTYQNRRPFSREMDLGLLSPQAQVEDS
The test can be described thus: (§1) Selectivity interaction (KinomeScan (DiscoverX)) EUB0000607a FLT3.

Test [2] deals with T2, Receptor-type tyrosine-protein kinase FLT3 (Homo sapiens), P36888 [D835H].
T2 sequence (whole entry): T1 sequence (whole entry) with Q834R, D835H
The description is as §1.

In test [3] the test system is T3, Receptor-type tyrosine-protein kinase FLT3 (Homo sapiens), P36888 [D835Y].
T3 sequence (whole entry): T1 sequence (whole entry) with Q834R, D835Y
The description is as §1.

The structures appear in SMILES notation. Substitutions are numbered along the chain they refer to.

In the case of `CNC(=O)Nc1ccc(-c2nc(N3CC4CCC(C3)O4)c3cnn(C4CCC5(CC4)OCCO5)c3n2)cc1`, the % of control in test [1] is 79%; in test [2] it was 82%; in test [3] it was 99%.

For the origin of these results see ChEMBL document CHEMBL5465560, “Selectivity Literature for EUbOPEN Chemogenomic Library” (2024).
